According to US20200390902A1, “Antibody-Drug Conjugates Targeted at Human Aspartyl-(Asparaginyl)-B-Hydroxylase (HAAH)” (Panacea Pharmaceuticals, Inc., priority 2017, published 2020):

Legend:
[1] = tested on: metastatic nodules in the lungs (PDAC PDx); experiment: PDx model of PDAC, lung metastasis; type: in vivo, mouse; conditions: 1.9 mg/kg, after 6 weeks of administration
Description: Pancreatic ductular adenocarcinoma (PDAC) is a highly lethal malignancy with limited treatment options. HAAH is a cell surface protein that is highly expressed in […] of PDACs. The specificity of SNS622-MC-DM1 was next examined in the patient-derived xenograft (PDx) mouse model PDAC. The patient-derived xenograft (PDx) murine model was established by using surgically resected PDAC (from Rhode Island Hospital, Providence, R.I., U.S.A.). Five to six-week-old female Nod Scid Gamma (NSG) mice were employed. […] Body weight and tumor size were measured twice a week and tumor volume was calculated using the modified ellipsoid formula (0.5×length×width^2). To determine the effect of SNS622-MC-DM1 on lung metastasis, all lung tissues were immersed in Bouin's fixative solution (Sigma-Aldrich, St. Louis, Mo., U.S.A.; catalog No, HT10132) and metastatic nodules on the surface of the lungs were counted. […]
This phenotype was maintained in the PDx model of NSG mouse. […] In this context, dose and period of administration of PAN-622 or SNS622-MC-DM1 for treatment of NSG mice was reduced to 1.9 mg/kg and the development and growth of metastatic nodules in the lungs after the treatment was assessed After 6 weeks of administration, the number of macroscopic metastatic nodules on the lung surface was determined.

[2] = tested on: pancreatic ductular adenocarcinoma (PDAC) xenograft; experiment: Patient-derived xenograft (PDx) model of PDAC, primary tumor growth; type: in vivo, mouse; conditions: 2.5 mg/kg i.v., by day 35, vs SNS622 or non-treated control
Description: Pancreatic ductular adenocarcinoma (PDAC) is a highly lethal malignancy with limited treatment options. HAAH is a cell surface protein that is highly expressed in […] of PDACs. The specificity of SNS622-MC-DM1 was next examined in the patient-derived xenograft (PDx) mouse model PDAC. The patient-derived xenograft (PDx) murine model was established by using surgically resected PDAC (from Rhode Island Hospital, Providence, R.I., U.S.A.). Five to six-week-old female Nod Scid Gamma (NSG) mice were employed. The surgically resected tumor tissue was diced into 5×5×5 mm^3 pieces, and a piece of tumor tissue was subcutaneously transplanted under anesthesia with isoflurane into each mouse via a small incision in the lower back, A buprenorphine analgesic was injected to each mouse for 3 days after surgery. The SNS622 antibody or the SNS622-MC-DM1 ADC was administered at a dose of 2.5 mg/kg by intravenous tail-vein injection every two weeks starting at day 17 post-surgery. Body weight and tumor size were measured twice a week and tumor volume was calculated using the modified ellipsoid formula (0.5×length×width^2). To determine the effect of SNS622-MC-DM1 on lung metastasis, all lung tissues were immersed in Bouin's fixative solution (Sigma-Aldrich, St. Louis, Mo., U.S.A.; catalog No, HT10132) and metastatic nodules on the surface of the lungs were counted. […]

H460 cells = experiment: Cell morphology by phase contrast microscope, H460; type: cell-based, human; conditions: H460, 32 nM, 72 hours
Protocol: Both cell lines were cultured in HG-DMEM (ThermoFisher Scientific Catalog No. 11965-092) supplemented with 20 mM HEPES (4-(2-hydroxyethyl)-1-piperazineethanesulfonic acid), 4 mM L-glutamine, 1 mM sodium pyruvate, 1× non-essential amino acids, 50 μg/ml gentamicin and 10% fetal bovine serum (FBS). H460 and NHLF cells were seeded into 96-well plates at 5,000 cells per well, following a 2-day FBS deprivation, and released by culture in complete culture medium containing 10% FBS. […] By 72 hours post treatment, cell death was determined by observing cell morphology using a phase contrast microscope at 150×.

MIA-PaCa-2 ASPH cells = experiment: MTS cytotoxicity assay, MIA-PaCa-2 ASPH; type: cell-based, human; conditions: 10-50 nM, 48 hours
Protocol: The in vitro specificity of SNS622-MC-DM1 was also examined using the human pancreas cell line MIA-PaCa-2 ASPH. This cell line has a high level expression of ASPH. MIA-PaCa-2 cells were seeded at a density of 2,000 cells/well and cultured in high-glucose (25 mM D-glucose) Dulbecco's Modified Eagle's Medium (DMEM) with 10% FBS at 37° C. in a humidified atmosphere containing 5% CO2. The cells were treated with 10 nM IgG1-MC-DM1, 20 nM IgG1-MC-DM1, 50 nM IgG1-MC-DM1, 10 nM SNS622-MC-DM1, 20 nM SNS622-MC-DM1, or 50 nM SNS622-MC-DM1 for 48 hours. IgG1-MC-DM1 is a control ADC obtained from Goodwin Biotechnology, having catalog No. DAGIC1194, The cytotoxicity of the ADCs was measured using an MTS assay kit (Promega, Catalog No, G3582). After treatment for 1 hour with the MTS solution, absorbance was measured using a microplate reader at a 490 nm wavelength, with a reference at 690 nm.

H460 lysate = biological target: T1, H460 lysate (Homo sapiens, UniProt Q12797); experiment: Binding of naked antibodies and ADCs to H460 lysate
T1 construct: A 96-well plate was coated with H460 lysate and dried at room temperature overnight; endogenous in cells; host or cells: H460 lysate (sonicated, supernatant)
T1 sequence (Q12797 1-758): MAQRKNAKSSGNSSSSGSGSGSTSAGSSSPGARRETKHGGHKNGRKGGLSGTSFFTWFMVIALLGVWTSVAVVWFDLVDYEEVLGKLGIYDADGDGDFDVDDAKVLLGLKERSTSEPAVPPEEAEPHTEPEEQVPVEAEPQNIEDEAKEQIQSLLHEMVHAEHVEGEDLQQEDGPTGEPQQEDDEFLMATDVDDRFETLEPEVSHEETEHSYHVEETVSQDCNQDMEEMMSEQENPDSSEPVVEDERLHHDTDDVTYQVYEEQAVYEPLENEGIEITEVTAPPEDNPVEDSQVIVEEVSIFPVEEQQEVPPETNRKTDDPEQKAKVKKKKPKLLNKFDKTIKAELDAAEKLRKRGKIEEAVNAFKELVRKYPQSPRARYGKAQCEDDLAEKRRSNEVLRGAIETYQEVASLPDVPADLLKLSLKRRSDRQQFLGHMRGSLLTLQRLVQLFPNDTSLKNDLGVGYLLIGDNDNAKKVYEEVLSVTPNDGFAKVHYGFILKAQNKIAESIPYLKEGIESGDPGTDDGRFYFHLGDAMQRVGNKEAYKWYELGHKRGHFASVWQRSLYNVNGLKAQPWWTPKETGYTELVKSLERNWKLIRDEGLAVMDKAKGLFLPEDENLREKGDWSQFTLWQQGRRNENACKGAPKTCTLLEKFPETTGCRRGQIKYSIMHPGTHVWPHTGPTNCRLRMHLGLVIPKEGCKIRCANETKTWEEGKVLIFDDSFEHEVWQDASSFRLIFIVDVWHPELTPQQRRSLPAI
Protocol: H460 cells were harvested, the cell density was adjusted to 2×10^6 cells/ml with PBS, and the resuspended cells sonicated on ice twice in 30 second pulses. After centrifugation at 300×g for 5 minutes the supernatant was collected and the protein concentration measured using a NANODROP spectrophotometer (ThermoFisher Scientific). A 96-well plate was coated with H460 lysate and dried at room temperature overnight. Following a 1-hour blockage with 1% non-fat dry milk in phosphate buffered saline (PBS), the plates were incubated for 45 minutes at 37° C. with each either 0.5 μg/ml IgG1λ (non-specific monoclonal antibody), IgG1λ-MC-DM1 (non-specific ADC), or SNS622-MC-DM1, or with 5 μg/ml SNS622. Following five PBS rinses to remove un-bound antibody. 1:100 goat anti-human IgG (8)-HRP was added and the plates incubated for 30 minutes at 37° C. Following five PBS rinses TMB substrate was added and, after incubation of the plates for 15 minutes at room temperature. Stop solution was added to terminate the reactions. The plates were read at 450 nm using a 96-well plate reader (ELx808, BioTek).

SNS622-MC-DM1: SNS622 anti-HAAH monoclonal antibody conjugated to mertansine (DM1) by the non-cleavable linker maleimidocaproyl (MC)
Mean number of nodules per animal [1]: 3.25
Total number of metastatic nodules in group [1]: approximately 35
PDAC tumor growth [2]: significantly reduced PDAC tumor growth
Cell density (morphology) (H460 cells): reduction of cell density
Reduction of relative absorbance (MTS) (MIA-PaCa-2 ASPH cells): about 16%
Percent binding (H460 lysate; percent of loading amount bound): 107%
Binding amount (H460 lysate; sonicated H460 (2E^6 cells/ml), loading 5.0 or 0.5 μg/ml): 5.35 µg/mL
